Results published in US20230295140A1, “INHIBITORS OF VAP-1” (Acucela Inc., priority 2021, published 2023).

Columns and labels:
Type in all cases: biochemical
[1] = molecular target: rhVAP-1 (Homo sapiens (Human), UniProt Q16853); test: VAP-1 fluorometric assay (Amplex Red/HRP, benzylamine substrate); details: class symbols, ranges defined in μM
Protocol: The capability of compounds described herein to inhibit the enzymatic activity of vascular adhesion protein-1 (VAP-1) was determined by fluorometric assay. The assay procedure provided by R&D Systems was modified slightly for use as an inhibitor screening assay. The assay measured the H2O2 generated from the oxidative deamination of benzylamine by rhVAP-1 by converting Amplex® Red to the fluorescent product, resorufin, via horseradish peroxidase (HRP) and H2O2. Reaction buffer was 10 mM NaHCO3, pH 7.4. A standard curve was prepared by serially diluting H2O2 in reaction buffer. A 10 μM solution of resorufin was prepared in reaction buffer and was dispensed to 2 wells. These wells served as positive control for maximum fluorescence. Reaction buffer was added to the individual wells so that the final volume in each well was 100 μL. Amplex Red was diluted to 1 mM in reaction buffer. A 10 U stock of HRP was prepared in reaction buffer. A reaction cocktail was prepared by mixing equal parts 1 mM Amplex Red with 10 U HRP with 3 parts reaction buffers. The reaction cocktail was added to the appropriate wells, so that that final concentration in the well was 0.05 mM Amplex Red and 0.5 U HRP. A 200 μM solution of benzylamine was prepared in reaction buffer. Benzylamine was added to the appropriate wells so that the final concentration was 50 μM. Inhibitors were diluted in DMSO to 20× and distributed to the appropriate wells. LJP-1207 served a positive control. rhVAP-1 was purchased from R&D Systems. The concentration used for each lot was determined so that the activity was equal to the first lot. Two wells were left blank as controls. The plate was incubated for 30 minutes at 37° C., protected from light under foil. The plate was read at 530/35 emission and 590/35 excitation. Data processing was performed using Excel and Prism software.
The capability of compounds described herein to inhibit the enzymatic activity of vascular adhesion protein-1 (VAP-1) was determined by fluorometric assay. The assay procedure provided by R&D Systems was modified slightly for use as an inhibitor screening assay. The assay measured the H2O2 generated from the oxidative deamination of benzylamine by rhVAP-1 by converting Amplex® Red to the fluorescent product, resorufin, via horseradish peroxidase (HRP) and H2O2. Amplex Red, HRP, Benzylamine, inhibitors (with DMSO as vehicle, 0.5% v/v) and rhVAP-1 were added to the wells. Assay was conducted in 10 mM NaHCO3, pH 7.4. A standard curve was prepared by serially diluting H2O2 in reaction buffer. The plate was incubated for 30 minutes at 37° C., protected from light under foil. The plate was read at 530/35 emission and 590/35 excitation. Data processing was performed using Prism software.

[2] = molecular target: rhMAO-A (Homo sapiens (Human), UniProt P21397); test: MAO-Glo assay, MAO-A inhibition
Protocol: (§1) The capability of compounds described herein to inhibit MAO was determined using a modified Promega MAO-Glo™ assay kit. The substrate ((4S)-4,5-dihydro-2-(6-hydroxybenzothiazolyl)-4-thiazolecarboxylic acid) was converted by MAO to produce methyl ester luciferin. The luciferin was then converted by luciferase to produce oxyluciferin and light. The light was measured using a luminescence setting on the plate reader. A standard curve was prepared by serially diluting luciferin in reaction buffer. The standard kit reaction buffer was used—100 mM HEPES (pH 7.5), 5% glycerol. The substrate was dispensed into the wells so that the final concentration for MAO-A inhibition assay would be 10 μM and MAO-B inhibition assay would be […]. Inhibitors were diluted in DMSO to 4× and distributed to the appropriate wells. Clorgyline and Deprenyl served as positive controls. rhMAO-A and rhMAO-B were purchased from Sigma. MAO-A or MAO-B was added to the appropriate wells. The plate was incubated for 1 hour, at room temperature with gentle shaking (90 rpm). The detection agent was added at equal volume (48 μL detection agent to 48 μL reaction). The plate was incubated for 20 minutes, at room temperature with gentle shaking (90 rpm). The plate luminescence was read. Data processing was performed using Prism software.
(§2) The capability of compounds described herein to inhibit MAO was determined using a modified Promega MAO-Glo™ assay. Test compounds, substrate and enzyme were incubated per manufacturer instructions for 1 hour, at room temperature with gentle shaking (90 rpm) before addition of detection agent. The detection agent was added at equal volume (48 μL detection agent to 48 μL reaction). The plate was incubated for 20 minutes, at room temperature with gentle shaking (90 rpm). The plate luminescence was read. Data processing was performed using Prism software.

[3] = molecular target: rhMAO-B (Homo sapiens (Human), UniProt P27338); test: MAO-Glo assay, MAO-B inhibition
Protocol: as §1, §2

[4] = class symbols, ranges defined in μM

Chain of rhMAO-A (P21397 whole entry): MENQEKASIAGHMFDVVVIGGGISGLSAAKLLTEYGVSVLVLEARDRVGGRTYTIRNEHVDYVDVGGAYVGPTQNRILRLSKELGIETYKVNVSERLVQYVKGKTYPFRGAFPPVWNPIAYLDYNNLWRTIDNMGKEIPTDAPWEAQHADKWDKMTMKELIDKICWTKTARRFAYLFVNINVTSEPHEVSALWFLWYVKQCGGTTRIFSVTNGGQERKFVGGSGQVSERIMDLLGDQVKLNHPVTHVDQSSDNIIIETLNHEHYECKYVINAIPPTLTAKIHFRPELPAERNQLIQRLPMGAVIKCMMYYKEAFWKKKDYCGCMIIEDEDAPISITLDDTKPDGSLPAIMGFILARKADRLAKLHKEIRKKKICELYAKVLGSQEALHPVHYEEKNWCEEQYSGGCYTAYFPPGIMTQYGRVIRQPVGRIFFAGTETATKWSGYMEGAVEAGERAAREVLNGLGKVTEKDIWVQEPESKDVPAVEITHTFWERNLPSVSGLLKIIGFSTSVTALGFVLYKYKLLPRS
Chain of rhVAP-1 (Q16853 whole entry): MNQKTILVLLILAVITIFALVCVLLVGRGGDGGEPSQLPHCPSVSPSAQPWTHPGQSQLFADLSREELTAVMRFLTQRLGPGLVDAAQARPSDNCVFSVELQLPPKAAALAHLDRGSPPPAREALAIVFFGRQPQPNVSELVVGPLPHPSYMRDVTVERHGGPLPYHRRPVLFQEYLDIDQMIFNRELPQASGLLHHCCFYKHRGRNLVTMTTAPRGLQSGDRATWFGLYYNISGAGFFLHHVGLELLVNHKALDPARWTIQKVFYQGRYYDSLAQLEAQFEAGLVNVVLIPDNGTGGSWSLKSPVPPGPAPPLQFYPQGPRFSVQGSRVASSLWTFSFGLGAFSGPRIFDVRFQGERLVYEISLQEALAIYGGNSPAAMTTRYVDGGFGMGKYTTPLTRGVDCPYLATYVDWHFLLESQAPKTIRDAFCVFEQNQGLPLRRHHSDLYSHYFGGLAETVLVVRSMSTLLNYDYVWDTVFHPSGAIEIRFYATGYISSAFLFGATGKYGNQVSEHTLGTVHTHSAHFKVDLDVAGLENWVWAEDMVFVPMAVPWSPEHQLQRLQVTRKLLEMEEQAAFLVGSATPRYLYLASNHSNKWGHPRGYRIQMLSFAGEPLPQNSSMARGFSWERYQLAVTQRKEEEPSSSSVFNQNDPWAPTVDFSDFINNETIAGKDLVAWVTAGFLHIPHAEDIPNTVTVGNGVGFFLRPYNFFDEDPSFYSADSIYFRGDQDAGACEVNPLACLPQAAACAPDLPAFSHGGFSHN
Chain of rhMAO-B (P27338 whole entry): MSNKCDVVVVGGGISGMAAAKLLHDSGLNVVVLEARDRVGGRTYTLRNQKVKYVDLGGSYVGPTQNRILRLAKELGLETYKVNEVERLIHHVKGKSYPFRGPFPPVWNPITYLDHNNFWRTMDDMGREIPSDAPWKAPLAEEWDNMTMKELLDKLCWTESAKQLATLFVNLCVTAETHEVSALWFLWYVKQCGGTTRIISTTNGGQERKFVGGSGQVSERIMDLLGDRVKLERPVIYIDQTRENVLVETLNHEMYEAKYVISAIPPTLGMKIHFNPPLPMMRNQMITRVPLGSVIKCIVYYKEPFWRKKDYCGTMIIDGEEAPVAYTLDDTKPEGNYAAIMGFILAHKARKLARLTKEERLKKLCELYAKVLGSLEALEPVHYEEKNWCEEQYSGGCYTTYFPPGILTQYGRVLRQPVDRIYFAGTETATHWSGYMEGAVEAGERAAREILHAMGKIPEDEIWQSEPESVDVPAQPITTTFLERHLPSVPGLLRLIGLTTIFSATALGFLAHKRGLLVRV

| SMILES | IC50 [1] [µM] | IC50 [2, 4] [µM] | IC50 [3, 4] [µM] | IC50 ([2]; bound printed in cell) [µM] | IC50 ([3]; bound printed in cell) [µM] | IC50 ([3]; number printed in cell) [µM] |
| --- | --- | --- | --- | --- | --- | --- |
| NC/C(=C\F)COc1ccc2nc(C3CCCC3)oc2c1 [Example 37, (E)-2-(((2-cyclopentylbenzo[d]oxazol-6-yl)oxy)methyl)-3-fluoroprop-2-en-1-amine 4-methylbenzenesulfonate] | < 0.1 | 1 to 10 | 0.1 to 1 |  |  |  |
| CC1(C)CCC(c2nc3ccc(OC/C(=C/F)CN)cc3o2)CC1 [Example 36, (E)-2-(((2-(4,4-dimethylcyclohexyl)benzo[d]oxazol-6-yl)oxy)methyl)-3-fluoroprop-2-en-1-amine 4-methylbenzenesulfonate] | < 0.1 | 10 to 30 | 0.1 to 1 |  |  |  |
| NC/C(=C\F)COc1ccc2nc(NCc3ccccc3)oc2c1 [Example 21, (E)-6-((2-(aminomethyl)-3-fluoroallyl)oxy)-N-benzylbenzo[d]oxazol-2-amine 4-methylbenzenesulfonate] | < 0.1 | 10 to 30 | 0.1 to 1 |  |  |  |
| COc1ccc(CNc2nc3ccc(OC/C(=C/F)CN)cc3o2)cc1 [Example 24, (E)-6-((2-(aminomethyl)-3-fluoroallyl)oxy)-N-(4-methoxybenzyl)benzo[d]oxazol-2-amine 4-methylbenzenesulfonate] | < 0.1 | 10 to 30 |  |  |  | 0.637 |
| CNC(=O)CN(Cc1ccccc1)c1nc2ccc(OC/C(=C/F)CN)cc2o1 [Example 53, (E)-2-((6-((2-(aminomethyl)-3-fluoroallyl)oxy)benzo[d]oxazol-2-yl)(benzyl)amino)-N-methylacetamide 4-methylbenzenesulfonate] | < 0.1 |  |  | > 50 | > 50 |  |
| NC/C(=C\F)COc1ccc2nc(NCCc3ccccc3)oc2c1 [Example 45, (E)-6-((2-(aminomethyl)-3-fluoroallyl)oxy)-N-phenethylbenzo[d]oxazol-2-amine 4-methylbenzenesulfonate] | < 0.1 | 10 to 30 | 0.1 to 1 |  |  |  |
| NC/C(=C\F)COc1ccc2nc(NCCO)oc2c1 [Example 47, (E)-2-((6-((2-(aminomethyl)-3-fluoroallyl)oxy)benzo[d]oxazol-2-yl)amino)ethan-1-ol 4-methylbenzenesulfonate] | < 0.1 | 10 to 30 | 10 to 30 |  |  |  |
| Cc1ccc(CNc2nc3ccc(OC/C(=C/F)CN)cc3o2)cn1 [Example 55, (E)-6-((2-(aminomethyl)-3-fluoroallyl)oxy)-N-((6-methylpyridin-3-yl)methyl)benzo[d]oxazol-2-amine 4-methylbenzenesulfonate] | < 0.1 |  | 1 to 10 | > 35 |  |  |
| CNC(=O)[C@@H](Cc1ccccc1)Nc1nc2ccc(OC/C(=C\F)CN)cc2o1 [Example 80, (R,Z)-2-((6-((2-(aminomethyl)-3-fluoroallyl)oxy)benzo[d]oxazol-2-yl)amino)-N-methyl-3-phenylpropanamide 4-methylbenzenesulfonate] | < 0.1 |  |  | > 40 | > 40 |  |
| NC/C(=C/F)COc1ccc2nc(N3CCC(O)CC3)oc2c1 [Example 77, (Z)-1-(6-((2-(aminomethyl)-3-fluoro-allyl)oxy)benzo[d]oxazol-2-yl)piperidin-4-ol 4-methylbenzenesulfonate] | < 0.1 | 1 to 10 |  |  | > 50 |  |
| NC/C(=C\F)COc1ccc2nc(C3CCC(c4ccccc4)CC3)oc2c1 (stereo not drawn) [Example 41, (E)-3-fluoro-2-(((2-(4-phenylcyclohexyl)benzo[d]oxazol-6-yl)oxy)methyl)prop-2-en-1-amine 4-methylbenzenesulfonate] | < 0.1 | 10 to 30 | 0.1 to 1 |  |  |  |

Second part, the molecule after the results:

| IC50 [1] [µM] | IC50 [2, 4] [µM] | IC50 [3, 4] [µM] | IC50 ([2]; bound printed in cell) [µM] | IC50 ([3]; bound printed in cell) [µM] | IC50 ([3]; number printed in cell) [µM] | SMILES |
| --- | --- | --- | --- | --- | --- | --- |
| < 0.1 | 1 to 10 | 1 to 10 |  |  |  | CCCN(C)c1nc2ccc(OC/C(=C/F)CN)cc2o1 [Example 46, (E)-6-((2-(aminomethyl)-3-fluoroallyl)oxy)-N-methyl-N-propylbenzo[d]oxazol-2-amine 4-methylbenzenesulfonate] |
| < 0.1 |  | 1 to 10 | > 50 |  |  | CCCCc1nc2ccc(OC/C(=C/F)CN)cc2[nH]1 [Example 13, (E)-2-(((2-butyl-1H-benzo[d]imidazol-6-yl)oxy)methyl)-3-fluoroprop-2-en-1-amine 4-methylbenzenesulfonate] |
| < 0.1 | 1 to 10 | 1 to 10 |  |  |  | NC/C(=C\F)COc1ccc2nc(NCCCO)oc2c1 [Example 70, (E)-3-((6-((2-(aminomethyl)-3-fluoroallyl)oxy)benzo[d]oxazol-2-yl)amino)propan-1-ol 4-methylbenzenesulfonate] |
| < 0.1 | 10 to 30 | 0.1 to 1 |  |  |  | CCCC(C)c1nc2ccc(OC/C(=C/F)CN)cc2o1 (stereo not drawn) [Example 43, (E)-3-fluoro-2-(((2-(pentan-2-yl)benzo[d]oxazol-6-yl)oxy)methyl)prop-2-en-1-amine 4-methylbenzenesulfonate] |
| < 0.1 | 10 to 30 | 1 to 10 |  |  |  | CCCCn1oc2cc(OC/C(=C/F)CN)ccc2c1=O [Example 9, (E)-6-((2-(aminomethyl)-3-fluoroallyl)oxy)-2-butylbenzo[d]isoxazol-3(2H)-one 4-methylbenzenesulfonate] |
| < 0.1 | 10 to 30 | < 0.1 |  |  |  | NC/C(=C\F)COc1ccc2nc(CCCCc3ccccc3)oc2c1 [Example 35, 4-methylbenzenesulfonate] |
| < 0.1 | 10 to 30 | 1 to 10 |  |  |  | CC(C)(C)Nc1nc2ccc(OC/C(=C/F)CN)cc2o1 [Example 39, (E)-6-((2-(aminomethyl)-3-fluoroallyl)oxy)-N-(tert-butyl)benzo[d]oxazol-2-amine 4-methylbenzenesulfonate] |
| < 0.1 |  | 1 to 10 | > 50 |  |  | Cc1cc(CNc2nc3ccc(OC/C(=C\F)CN)cc3o2)cc(C)n1 [Example 60, (Z)-6-((2-(aminomethyl)-3-fluoroallyl)oxy)-N-((2,6-dimethylpyridin-4-yl)methyl)benzo[d]oxazol-2-amine bis(4-methylbenzenesulfonate)] |
| < 0.1 |  |  | > 50 | > 50 |  | CCCCc1nc2cc(OC/C(=C/F)CN)ccc2n1C [Example 11, (E)-2-(((2-butyl-1-methyl-1H-benzo[d]imidazol-5-yl)oxy)methyl)-3-fluoroprop-2-en-1-amine] |
| < 0.1 | 1 to 10 | 0.1 to 1 |  |  |  | CCCCc1nc2cc(C)c(OC/C(=C/F)CN)cc2o1 [Example 68, (E)-2-(((2-butyl-5-methylbenzo[d]oxazol-6-yl)oxy)methyl)-3-fluoroprop-2-en-1-amine 4-methylbenzenesulfonate] |
| < 0.1 | 1 to 10 | 0.1 to 1 |  |  |  | CCCCc1nc2ccc(OC/C(=C\F)CN)cc2o1 [Example 19, (Z)-2-(((2-butylbenzo[d]oxazol-6-yl)oxy)methyl)-3-fluoroprop-2-en-1-amine 4-methylbenzenesulfonate] |
